In patent US8796268B2, “Heteroaryls and uses thereof” (Millennium Pharmaceuticals, Inc., priority 2010, dated 2014):

Key:
Assay type in all cases: biochemical
Human PI3K delta = biological target: T1, Human PI3K delta (Homo sapiens, UniProt O00329); assay: Human PI3K delta enzyme assay (HTRF); conditions: concentration not given, b1389 states 1.0 μM for PI3K δ and γ; for inhibition at 1 µM: read-out: p110 delta Percent Inhibition
T1 construct: His (N); host or cells: SF9 insect cells (baculovirus)
T1 sequence (O00329 whole entry): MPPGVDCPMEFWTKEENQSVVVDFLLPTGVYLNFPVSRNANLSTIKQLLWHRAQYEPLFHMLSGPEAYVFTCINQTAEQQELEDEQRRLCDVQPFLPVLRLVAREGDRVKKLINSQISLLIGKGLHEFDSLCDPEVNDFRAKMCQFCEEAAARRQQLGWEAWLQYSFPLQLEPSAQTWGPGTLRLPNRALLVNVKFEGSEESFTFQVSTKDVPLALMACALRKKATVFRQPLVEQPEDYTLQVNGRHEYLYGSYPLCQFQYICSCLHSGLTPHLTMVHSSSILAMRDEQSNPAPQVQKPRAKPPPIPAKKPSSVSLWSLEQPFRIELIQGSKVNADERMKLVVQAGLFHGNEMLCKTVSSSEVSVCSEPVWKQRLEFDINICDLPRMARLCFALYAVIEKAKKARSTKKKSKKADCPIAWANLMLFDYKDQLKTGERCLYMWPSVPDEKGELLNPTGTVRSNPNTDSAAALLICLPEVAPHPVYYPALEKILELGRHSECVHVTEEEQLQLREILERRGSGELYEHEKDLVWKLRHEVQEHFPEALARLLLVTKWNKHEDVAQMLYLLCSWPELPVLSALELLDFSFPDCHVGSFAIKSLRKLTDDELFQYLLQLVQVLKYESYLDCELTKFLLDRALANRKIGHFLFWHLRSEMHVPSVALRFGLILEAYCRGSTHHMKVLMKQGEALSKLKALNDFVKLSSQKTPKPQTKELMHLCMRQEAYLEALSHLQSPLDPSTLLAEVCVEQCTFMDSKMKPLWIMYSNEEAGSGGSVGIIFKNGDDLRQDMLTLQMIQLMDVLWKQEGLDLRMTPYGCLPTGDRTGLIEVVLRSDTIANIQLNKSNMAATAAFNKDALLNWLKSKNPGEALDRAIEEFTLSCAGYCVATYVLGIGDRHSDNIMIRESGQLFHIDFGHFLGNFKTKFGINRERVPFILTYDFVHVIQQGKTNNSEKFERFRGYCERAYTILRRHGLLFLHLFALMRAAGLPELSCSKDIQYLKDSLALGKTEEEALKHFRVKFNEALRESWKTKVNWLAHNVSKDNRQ
T1 sequence (P27986 whole entry partner): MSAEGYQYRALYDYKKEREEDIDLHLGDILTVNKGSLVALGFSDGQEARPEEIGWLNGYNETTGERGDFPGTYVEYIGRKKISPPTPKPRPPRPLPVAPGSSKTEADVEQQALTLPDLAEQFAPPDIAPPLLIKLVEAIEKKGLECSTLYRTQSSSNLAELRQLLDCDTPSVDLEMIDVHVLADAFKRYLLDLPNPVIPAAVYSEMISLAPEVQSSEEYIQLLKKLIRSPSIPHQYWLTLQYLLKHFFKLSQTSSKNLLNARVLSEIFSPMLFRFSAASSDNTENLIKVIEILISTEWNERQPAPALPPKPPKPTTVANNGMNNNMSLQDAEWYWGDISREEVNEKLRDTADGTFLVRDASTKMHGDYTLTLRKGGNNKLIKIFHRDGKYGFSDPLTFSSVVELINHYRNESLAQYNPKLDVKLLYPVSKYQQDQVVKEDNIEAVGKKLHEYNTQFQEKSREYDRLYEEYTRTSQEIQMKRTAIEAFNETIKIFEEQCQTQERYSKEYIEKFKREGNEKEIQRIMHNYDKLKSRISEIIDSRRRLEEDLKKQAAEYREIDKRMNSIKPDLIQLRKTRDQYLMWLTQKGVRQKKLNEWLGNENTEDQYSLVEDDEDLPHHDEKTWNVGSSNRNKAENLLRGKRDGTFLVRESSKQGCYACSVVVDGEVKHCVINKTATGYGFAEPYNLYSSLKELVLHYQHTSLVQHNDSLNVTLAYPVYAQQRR
Procedure, shortened: (§1)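 Compounds were mixed with 25 uM ATP, then with 3.5 uM di-C8 PI(4,5)P2 and His-tagged PI3K isoform (β 5.25 nM, δ 0.75 nM, γ 5 nM) at pH 7.00. After 30 min at room temperature, EDTA stopped the reaction and PIP3 was measured by HTRF over 1 h.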

Human PI3K beta = biological target: T2, Human PI3K beta (Homo sapiens, UniProt P42338); assay: Human PI3K beta enzyme assay (HTRF); conditions: concentration not given, b1387 states 1.1 μM for PI3K α and β; for inhibition at 1.1 µM: read-out: p110 beta Percent Inhibition
T2 construct: His (N); host or cells: SF9 insect cells (baculovirus)
T2 sequence (P42338 whole entry): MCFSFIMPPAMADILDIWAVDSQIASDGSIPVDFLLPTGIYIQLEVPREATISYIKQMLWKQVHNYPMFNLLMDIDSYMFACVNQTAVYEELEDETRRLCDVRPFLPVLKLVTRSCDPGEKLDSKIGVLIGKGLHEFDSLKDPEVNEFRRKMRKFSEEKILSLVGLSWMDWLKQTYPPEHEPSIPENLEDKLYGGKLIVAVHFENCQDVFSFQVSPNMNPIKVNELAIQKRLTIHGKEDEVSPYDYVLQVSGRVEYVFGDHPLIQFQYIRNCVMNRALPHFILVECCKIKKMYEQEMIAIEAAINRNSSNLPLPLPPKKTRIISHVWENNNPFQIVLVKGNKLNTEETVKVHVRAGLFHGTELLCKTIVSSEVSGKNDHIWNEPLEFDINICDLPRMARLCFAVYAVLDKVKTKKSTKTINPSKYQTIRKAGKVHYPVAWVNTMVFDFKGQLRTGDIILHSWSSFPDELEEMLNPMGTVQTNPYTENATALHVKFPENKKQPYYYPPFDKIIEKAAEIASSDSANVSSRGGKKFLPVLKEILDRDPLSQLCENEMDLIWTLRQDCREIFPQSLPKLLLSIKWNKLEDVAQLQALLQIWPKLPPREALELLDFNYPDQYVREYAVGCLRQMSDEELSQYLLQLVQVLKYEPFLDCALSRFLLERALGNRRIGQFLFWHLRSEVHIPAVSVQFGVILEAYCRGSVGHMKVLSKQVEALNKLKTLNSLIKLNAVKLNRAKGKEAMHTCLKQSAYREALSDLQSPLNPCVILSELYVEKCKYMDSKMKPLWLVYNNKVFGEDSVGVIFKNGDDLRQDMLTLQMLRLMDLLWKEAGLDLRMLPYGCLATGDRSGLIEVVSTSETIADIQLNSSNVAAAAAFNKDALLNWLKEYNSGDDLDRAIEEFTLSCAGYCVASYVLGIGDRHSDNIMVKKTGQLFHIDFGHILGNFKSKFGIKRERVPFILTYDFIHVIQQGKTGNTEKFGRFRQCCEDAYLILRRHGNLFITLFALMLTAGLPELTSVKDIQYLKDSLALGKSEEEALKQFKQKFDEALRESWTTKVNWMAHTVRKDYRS
T2 sequence (P27986 whole entry partner): as the sequence (P27986 whole entry partner) above
Procedure, shortened: as §1

Human PI3K alpha = biological target: T3, Human PI3K alpha (Homo sapiens, UniProt P42336); assay: Human PI3K alpha enzyme assay (HTRF); conditions: concentration not given, b1387 states 1.1 μM for PI3K α and β; for inhibition at 1.1 µM: read-out: p110 alpha Percent Inhibition
T3 construct: His (N); host or cells: SF9 insect cells (baculovirus)
T3 sequence (P42336 whole entry): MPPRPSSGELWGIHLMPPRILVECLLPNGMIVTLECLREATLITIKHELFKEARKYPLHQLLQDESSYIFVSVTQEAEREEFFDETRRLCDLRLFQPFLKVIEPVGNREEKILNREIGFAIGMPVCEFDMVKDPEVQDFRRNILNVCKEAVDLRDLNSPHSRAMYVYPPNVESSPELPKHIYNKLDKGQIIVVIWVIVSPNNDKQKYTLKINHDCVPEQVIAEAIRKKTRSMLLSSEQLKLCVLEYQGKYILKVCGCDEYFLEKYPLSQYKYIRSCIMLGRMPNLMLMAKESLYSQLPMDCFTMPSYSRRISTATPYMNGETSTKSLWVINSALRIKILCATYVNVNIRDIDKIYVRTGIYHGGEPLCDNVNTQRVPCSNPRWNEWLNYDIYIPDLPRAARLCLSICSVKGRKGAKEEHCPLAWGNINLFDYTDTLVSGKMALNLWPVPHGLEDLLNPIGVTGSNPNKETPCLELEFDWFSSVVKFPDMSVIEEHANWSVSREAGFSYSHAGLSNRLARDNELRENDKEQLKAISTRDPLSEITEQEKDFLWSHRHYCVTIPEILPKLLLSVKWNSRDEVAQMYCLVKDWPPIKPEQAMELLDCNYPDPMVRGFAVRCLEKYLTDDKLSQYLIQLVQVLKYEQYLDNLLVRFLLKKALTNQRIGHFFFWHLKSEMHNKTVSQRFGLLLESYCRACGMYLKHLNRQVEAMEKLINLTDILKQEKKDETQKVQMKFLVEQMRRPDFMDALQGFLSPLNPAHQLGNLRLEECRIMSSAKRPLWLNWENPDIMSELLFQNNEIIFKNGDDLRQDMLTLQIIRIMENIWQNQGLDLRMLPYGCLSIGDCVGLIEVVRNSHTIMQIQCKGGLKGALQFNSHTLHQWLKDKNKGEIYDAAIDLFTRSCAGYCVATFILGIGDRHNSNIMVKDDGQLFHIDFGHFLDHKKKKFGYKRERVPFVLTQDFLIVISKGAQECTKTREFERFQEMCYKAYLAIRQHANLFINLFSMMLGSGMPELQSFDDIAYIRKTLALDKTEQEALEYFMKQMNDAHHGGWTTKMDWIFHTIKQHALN
T3 sequence (P27986 whole entry partner): as the sequence (P27986 whole entry partner) above

Human PI3K gamma = biological target: T4, Human PI3K gamma (Homo sapiens, UniProt P48736); assay: Human PI3K gamma enzyme assay (HTRF); conditions: concentration not given, b1389 states 1.0 μM for PI3K δ and γ; for inhibition at 1 µM: read-out: p110 gamma Percent Inhibition
T4 construct: His (N); host or cells: SF9 insect cells (baculovirus)
T4 sequence (P48736 whole entry): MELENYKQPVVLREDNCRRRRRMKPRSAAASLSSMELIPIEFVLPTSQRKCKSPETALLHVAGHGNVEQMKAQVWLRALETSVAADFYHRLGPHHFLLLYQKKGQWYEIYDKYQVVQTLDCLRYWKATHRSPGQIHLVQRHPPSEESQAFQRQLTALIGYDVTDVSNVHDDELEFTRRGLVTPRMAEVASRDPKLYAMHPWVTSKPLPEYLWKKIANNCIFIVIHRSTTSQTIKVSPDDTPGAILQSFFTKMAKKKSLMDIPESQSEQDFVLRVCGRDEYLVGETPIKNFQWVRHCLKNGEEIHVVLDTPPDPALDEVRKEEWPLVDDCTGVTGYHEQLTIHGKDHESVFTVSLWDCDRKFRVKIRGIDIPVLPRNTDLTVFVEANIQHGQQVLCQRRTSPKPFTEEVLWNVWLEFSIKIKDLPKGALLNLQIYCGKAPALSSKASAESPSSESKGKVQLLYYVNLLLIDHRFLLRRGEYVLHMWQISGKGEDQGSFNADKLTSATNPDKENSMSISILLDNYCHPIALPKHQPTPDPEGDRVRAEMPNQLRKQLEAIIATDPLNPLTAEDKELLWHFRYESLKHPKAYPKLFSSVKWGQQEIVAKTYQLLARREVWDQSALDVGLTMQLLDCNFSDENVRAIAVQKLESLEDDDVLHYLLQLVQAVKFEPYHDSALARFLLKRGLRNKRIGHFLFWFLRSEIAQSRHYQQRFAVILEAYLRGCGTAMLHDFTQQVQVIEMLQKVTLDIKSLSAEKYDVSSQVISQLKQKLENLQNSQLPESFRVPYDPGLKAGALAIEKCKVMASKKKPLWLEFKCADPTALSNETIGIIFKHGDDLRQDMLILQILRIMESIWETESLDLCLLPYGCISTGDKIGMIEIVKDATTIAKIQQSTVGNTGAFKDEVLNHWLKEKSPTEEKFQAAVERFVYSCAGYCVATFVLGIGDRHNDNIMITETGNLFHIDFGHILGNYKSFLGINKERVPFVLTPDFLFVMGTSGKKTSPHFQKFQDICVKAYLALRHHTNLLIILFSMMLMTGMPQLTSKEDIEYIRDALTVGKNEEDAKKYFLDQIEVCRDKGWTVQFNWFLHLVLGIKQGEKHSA
Procedure, shortened: as §1

inhibition at 1 µM (Human PI3K delta) [%] | inhibition at 1.1 µM (Human PI3K beta) [%] | inhibition at 1.1 µM (Human PI3K alpha) [%] | inhibition at 1 µM (Human PI3K gamma) [%] | p110 delta Percent Inhibition (Human PI3K delta) [%] | p110 beta Percent Inhibition (Human PI3K beta) [%] | p110 alpha Percent Inhibition (Human PI3K alpha) [%] | p110 gamma Percent Inhibition (Human PI3K gamma) [%] | SMILES
47 | 86 | 18 | 13 |  |  |  |  | OC(c1cccc(-c2ccncc2)c1)c1cc(-c2ccncc2)sc1-c1nnc[nH]1 (centres unmarked) [Compound 258]
37 | 74 | 37 | 6 |  |  |  |  | OC(c1ccc(Br)o1)c1cc(-c2ccncc2)sc1-c1nnc[nH]1 (centres unmarked) [Compound 260]
12 | 69 | 0 | 4 |  |  |  |  | O=C(O)c1cc(-c2sc(-c3ccncc3)nc2Cc2ccc(Cl)cc2)[nH]n1 [Compound 262, 5-(4-(4-chlorobenzyl)-2-(pyridin-4-yl)thiazol-5-yl)-1H-pyrazole-3-carboxylic acid]
84 | 105 | 48 | 43 |  |  |  |  | OC(c1cnc2ccccc2n1)c1cc(-c2ccncc2)sc1-c1nnc[nH]1 (centres unmarked) [Compound 263]
100 | 99 | 32 | 28 |  |  |  |  | COc1ccc(C(O)c2cc(-c3ccncc3)sc2-c2nnc[nH]2)c(F)c1 (centres unmarked) [Compound 264]
 |  |  |  | 111 | 109 | 64 | 64 | COc1cc(C(O)c2cc(-c3ccnc(C)c3)sc2-c2nnc[nH]2)c(F)cc1Cl (centres unmarked) [Compound 265]
52 | 90 | 36 | 8 |  |  |  |  | OC(c1cc(F)ccc1F)c1cc(-c2ccncc2)sc1-c1nnc[nH]1 (centres unmarked) [Compound 266]
111 | 113 | 100 | 43 |  |  |  |  | CC(=O)Nc1cc(-c2cc(C(c3ccc(Cl)cc3)N3CCN(C)CC3)c(-c3nnc[nH]3)s2)ccn1 (centres unmarked) [Compound 267]
102 | 95 | 82 | 16 |  |  |  |  | CC(=O)Nc1cc(-c2cc(C(c3ccc(Cl)cc3)N3CCC[C@@H]3CO)c(-c3nnc[nH]3)s2)ccn1 (some centres unmarked) [Compound 268]
101 | 100 | 72 | 15 |  |  |  |  | CC(=O)Nc1cc(-c2cc(C(c3ccc(Cl)cc3)N3CC[C@H](CO)C3)c(-c3nnc[nH]3)s2)ccn1 (some centres unmarked) [Compound 269]
111 | 114 | 81 | 24 |  |  |  |  | CC(=O)Nc1cc(-c2cc(C(c3ccc(Cl)cc3)N3CC(CCN)C3)c(-c3nnc[nH]3)s2)ccn1 (centres unmarked) [Compound 270]
63 | 82 | 35 | 8 |  |  |  |  | Cc1ccc(C(O)c2cc(-c3ccncc3)sc2-c2nnc[nH]2)s1 (centres unmarked) [Compound 271]
70 | 96 | 70 | 10 |  |  |  |  | COc1ccc(C(O)c2cc(-c3ccncc3)sc2-c2nnc[nH]2)cn1 (centres unmarked) [Compound 272]
98 | 73 | 88 | 7 |  |  |  |  | CC(=O)Nc1cc(-c2cc(C(O)(C3=CCOCC3)c3ccc(Cl)cc3)c(-c3nnc[nH]3)s2)ccn1 (centres unmarked) [Compound 273]
107 | 109 | 98 | 38 |  |  |  |  | CC(=O)Nc1cc(-c2cc(C(c3ccc(Cl)cc3)N(C)C3CNC3)c(-c3nnc[nH]3)s2)ccn1 (centres unmarked) [Compound 274]
44 | 47 | 17 | 14 |  |  |  |  | OC(c1cc(-c2ccncc2)sc1-c1nnc[nH]1)c1c(F)cccc1Cl (centres unmarked) [Compound 275]
12 | 15 | 4 | 6 |  |  |  |  | OC(c1ccccc1-c1cccnc1)c1cc(-c2ccncc2)sc1-c1nnc[nH]1 (centres unmarked) [Compound 276]
 |  |  |  | 116 | 97 | 95 | 55 | CC(=O)Nc1cc(-c2cc(C(c3ccc(Cl)cc3)N(C)C3CNC3)c(-c3nnc[nH]3)s2)ccn1 (centres unmarked) [Compound 277]
 | 98 |  |  | 83 |  | 23 | 35 | COc1cc(C(O)c2cc(-c3ccnc(Cl)c3)sc2-c2nnc[nH]2)c(F)cc1Cl (centres unmarked) [Compound 278]

inhibition at 1 µM (Human PI3K delta) [%] | inhibition at 1.1 µM (Human PI3K beta) [%] | inhibition at 1.1 µM (Human PI3K alpha) [%] | inhibition at 1 µM (Human PI3K gamma) [%] | p110 delta Percent Inhibition (Human PI3K delta) [%] | p110 beta Percent Inhibition (Human PI3K beta) [%] | p110 alpha Percent Inhibition (Human PI3K alpha) [%] | p110 gamma Percent Inhibition (Human PI3K gamma) [%] | SMILES
78 | 106 | 19 | 42 |  |  |  |  | COc1cc(C(O)c2cc(-c3ccncc3)sc2-c2nnc[nH]2)c(F)cc1Cl (centres unmarked) [Compound 279]
92 | 106 | 35 | 34 |  |  |  |  | OC(c1ccc2ccccc2c1)c1cc(-c2ccncc2)sc1-c1nnc[nH]1 (centres unmarked) [Compound 280]
 | 96 |  |  | 97 |  | 52 | 56 | OC(c1cc(-c2ccncc2)sc1-c1nnc[nH]1)c1c(F)ccc2ccccc12 (centres unmarked) [Compound 281]
 | 99 | 14 |  | 64 |  |  | 21 | COc1cc(C(O)c2cc(-c3ccnnc3)sc2-c2nnc[nH]2)c(F)cc1Cl (centres unmarked) [Compound 282]
 |  |  |  | 110 | 114 | 39 | 66 | OC(c1cc2ccccc2cc1F)c1cc(-c2ccncc2)sc1-c1nnc[nH]1 (centres unmarked) [Compound 284]
 |  |  |  | 77 | 83 | 16 | 18 | COc1cc(C(O)c2cc(-c3ccnc(C)c3)sc2-c2nnc[nH]2)c(F)cc1Cl (centres unmarked) [Compound 285]
104 | 92 | 36 | 50 |  |  |  |  | O=C(O)c1sc(N2CCOCC2)nc1Cc1cc2ccccc2s1 [Compound 286]
76 | 85 | 14 | 19 |  |  |  |  | COc1ccc2cc(Cc3nc(N4CCOCC4)sc3C(=O)O)ccc2c1 [Compound 288]
32 | 32 | 11 | 10 |  |  |  |  | Cc1nc2cc(Cc3nc(N4CCOCC4)sc3C(=O)O)ccc2s1 [Compound 289]
104 | 104 | 23 | 49 |  |  |  |  | O=C(O)c1sc(N2CCOCC2)nc1Cc1cc(Cl)c(Cl)cc1F [Compound 290]
105 | 107 | 36 | 57 |  |  |  |  | N#Cc1c(N2CCOCC2)sc(C(=O)O)c1C(N)c1ccc(Cl)c(Cl)c1 (centres unmarked) [Compound 291]
56 | 82 | 4 | 6 |  |  |  |  | O=C(O)c1sc(N2CCOCC2)nc1Cc1ccc2cnccc2c1 [Compound 292]
101 | 94 | 47 | 35 |  |  |  |  | N#Cc1c(N2CCOCC2)sc(C(=O)O)c1Cn1cnc2ccccc2c1=O [Compound 294, 4-cyano-5-(morpholin-4-yl)-3-[(4-oxoquinazolin-3(4H)-yl)methyl]thiophene-2-carboxylic acid]
107 | 79 | 37 | 14 |  |  |  |  | O=C(O)c1sc(N2CCOCC2)c(C#Cc2ccccc2)c1Cc1ccc(Cl)c(Cl)c1 [Compound 296, 3-(3,4-dichlorobenzyl)-5-(morpholin-4-yl)-4-(phenylethynyl)thiophene-2-carboxylic acid]
77 | 104 | 26 | 33 |  |  |  |  | N#Cc1c(N2CCOC(CO)C2)sc(C(=O)O)c1Cc1ccc2ccccc2c1 (centres unmarked) [Compound 297, 4-cyano-5-[2-(hydroxymethyl)morpholin-4-yl]-3-(2-naphthylmethyl)thiophene-2-carboxylic acid]
103 | 95 | 11 | 38 |  |  |  |  | O=C(NO)c1sc(N2CCOCC2)nc1Cc1ccc(Cl)c(Cl)c1 [Compound 298, 4-(3,4-dichlorobenzyl)-N-hydroxy-2-(morpholin-4-yl)-1,3-thiazole-5-carboxamide]
108 | 109 | 39 | 42 |  |  |  |  | O=C(O)c1sc(N2CCOCC2)nc1Cc1ccc2cccc(F)c2c1 [Compound 299]
89 | 107 | 55 | 49 |  |  |  |  | COc1ccc2cc(Cc3c(C(=O)O)sc(N4CCOCC4)c3C#N)ccc2c1 [Compound 301]
97 | 100 | 21 | 15 |  |  |  |  | Cn1c(Cc2nc(N3CCOCC3)sc2C(=O)O)cc2ccccc21 [Compound 302]
